Measured values from publication PMC7594840, “Identification of histone deacetylase inhibitors with (arylidene)aminoxy scaffold active in uveal melanoma cell lines” (Journal of Enzyme Inhibition and Medicinal Chemistry, 2020).
pIC50: −log10 of the molar value.

How the values were obtained:
HDAC6 = molecular target: T1, HDAC6 (Homo sapiens, UniProt Q9UBN7); experiment: Microfluidic chip-based HDAC inhibition assay (Calliper off-chip mobility shift), HDAC6; type: biochemical
T1 construct: purchased BPS Bioscience
T1 sequence (Q9UBN7 1-1215): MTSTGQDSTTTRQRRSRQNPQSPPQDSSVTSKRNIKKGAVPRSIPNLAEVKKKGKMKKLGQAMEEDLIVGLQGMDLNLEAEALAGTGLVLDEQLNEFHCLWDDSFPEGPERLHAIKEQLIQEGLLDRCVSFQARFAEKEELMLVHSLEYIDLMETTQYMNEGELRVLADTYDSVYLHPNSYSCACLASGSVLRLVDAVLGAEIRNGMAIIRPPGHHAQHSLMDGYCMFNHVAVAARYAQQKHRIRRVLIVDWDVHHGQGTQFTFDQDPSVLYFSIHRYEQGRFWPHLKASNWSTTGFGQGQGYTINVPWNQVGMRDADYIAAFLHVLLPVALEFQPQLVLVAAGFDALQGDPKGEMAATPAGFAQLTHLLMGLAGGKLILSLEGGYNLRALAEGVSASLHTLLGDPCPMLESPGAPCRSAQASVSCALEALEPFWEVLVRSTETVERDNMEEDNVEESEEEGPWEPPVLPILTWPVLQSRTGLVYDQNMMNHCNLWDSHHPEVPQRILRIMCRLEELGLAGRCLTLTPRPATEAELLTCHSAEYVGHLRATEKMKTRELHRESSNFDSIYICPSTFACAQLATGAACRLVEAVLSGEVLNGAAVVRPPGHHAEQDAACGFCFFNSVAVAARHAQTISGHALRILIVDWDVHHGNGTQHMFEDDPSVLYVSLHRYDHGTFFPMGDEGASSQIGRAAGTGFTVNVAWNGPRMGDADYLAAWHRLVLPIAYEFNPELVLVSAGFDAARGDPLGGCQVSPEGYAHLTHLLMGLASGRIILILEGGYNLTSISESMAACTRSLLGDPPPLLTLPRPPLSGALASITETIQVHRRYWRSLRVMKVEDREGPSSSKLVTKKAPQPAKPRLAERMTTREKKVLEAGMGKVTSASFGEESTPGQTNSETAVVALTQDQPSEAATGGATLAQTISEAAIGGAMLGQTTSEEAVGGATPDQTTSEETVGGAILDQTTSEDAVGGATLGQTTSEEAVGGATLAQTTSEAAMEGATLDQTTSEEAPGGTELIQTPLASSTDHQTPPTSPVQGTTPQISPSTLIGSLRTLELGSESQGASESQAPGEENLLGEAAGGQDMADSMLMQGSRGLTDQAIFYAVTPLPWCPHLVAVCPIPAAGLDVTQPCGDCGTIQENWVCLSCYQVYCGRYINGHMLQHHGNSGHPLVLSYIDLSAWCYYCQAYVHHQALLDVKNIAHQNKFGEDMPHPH
Text: Test compounds were screened against human histone deacetylases (HDACs) 1, 3, 6, and 8 using the Calliper off-chip mobility shift assay technology. All HDACs were purchased from BPS Bioscience and four selective substrates were used according to the targeted isozyme. […] Buffers components, except for CR-3 (LabChip Coating Reagent 3, purchased from PerkinElmer, Product Number 760050) and Panobinostat (LBH589, purchased from ApexBio Technology)[35]^,[36] were purchased from Sigma Aldrich. […] (all purchased from Selleck Chemicals).

92.1 cells = experiment: MTT cell viability assay, UM cell line 92.1; type: cell-based, human; conditions: 72 h treatment, compared with SAHA and LD10
Protocol: The anti-proliferative effects of the most promising HDAC inhibitors, VS16, VS13, SN2, and LD10 were evaluated on human UM cell lines (92.1 and Mel270) and SAHA was used as a positive control. First, we assessed by MTT assay the cell viability after a 72 h treatment at different concentrations. […] Similar results were found for ovarian carcinoma cell line A2780 and to a lesser extent for SKOV3 (Supplementary Figure S2).
Figure 7. MTT. In vitro cytotoxicity at the 72 h time point of the different compounds in human UM cell lines 92.1 and Mel270, as assessed by the MTT cell viability assay. Data are expressed as percent of control with the DMSO solvent, which was used at the same amount present in the highest compound concentration. Error bars represent SD of quadruplicates. One representative experiment is shown.
Treatments with the compounds were performed with slight differences, according to the final use of the samples. For the cell viability assay with MTT, cells were seeded in 96-well flat-bottom plates in culture medium at 5 × 10^3 cells/well, whereas for cell cycle analysis and QRT-PCR cells were seeded in 24-well plates at 5 × 10^4 cells/well. The day after, a culture medium containing the appropriate amount of compounds or their solvent control DMSO was added, and treatments were carried out for the indicated time.
Cell viability after treatment was evaluated by a microculture tetrazolium reduction assay using MTT [3–(4,5-dimethyltiazol-2-yl) 2,5-diphenyltetrazolium bromide; Sigma]. At 72 h of treatment, 20 μl of MTT stock solution (2 mg/ml in PBS) were added to 200 μl cell cultures for an additional 4 h of incubation. MTT-containing culture medium was then removed and precipitated formazan was dissolved in 100 μl of DMSO. Results were read within 15 min in a microplate reader spectrometer at 540 nm (MEDGENIX 400 ATC, Medgenix Diagnostics), and the means of quadruplicates were calculated. Cell survival was expressed as a percentage of control samples.

Q: What does the source list for O=C(CCCCO/N=C/c1cnc2ccccc2c1)NO [Compound 2f, (E)-N-hydroxy-5-(((quinolin-3-ylmethylene)amino)oxy)pentanamide]?
A: pIC50 (HDAC6): 8.00; times less active than SAHA on HDAC6 (HDAC6; compared with SAHA): 7 times; effect on cell viability (MTT) (92.1 cells): stronger effect
